Reference: patent publication US9073880B2, “2-(2-phenylethenyl) 1,3-benzodiazepine derivatives useful for the treatment of cancer” (Yissum Research Development Company of the Hebrew …, priority 2010, dated 2015)

What was measured:
Assay type in all cases: cell-based
[1] = test system: human melanoma A375 cells; assay: Cell proliferation, A375 (Example 4); settings: A-375, compound in 2-hydroxypropyl-β-cyclodextrin
Procedure: (§1) Human ovary cancer A2780 cells lines were seeded at a density of 5000 cells/well, human melanoma A375 cells were plated at a density of 2,500 cells/well, human colon carcinoma HCT15 cells were plated at a density of 3,000 cells/well, human prostate carcinoma PC3 cells were plated at a density of 1,500 cells/well, human breast carcinoma MCF7 cells were plated at a density of 5,000 cells/well, human breast carcinoma MDA MB 468 cells were plated at a density of 6,000 cells/well, human myeloma U266, RPMI8226 and CAG cells were plated at a density of 10,000 cells/well. All cells were plated in 96-well plates in 90 μl growth medium containing 10% FCS, 100 units/ml penicillin and 100 μg/ml streptomycin. Compound 3 was added a day later in […] of 1% DMSO in DDW to obtain final concentrations of 0, 0.1, 0.3, 1, 3, and 10 μM. The final concentration of DMSO (0.1% DMSO) was kept constant in all samples. […] The optical density values were read at 630 nm in ELISA plate reader. Non-adhered cells were exposed to WST-1 reagent for 5 hours following 72 hours treatment with the inhibitors, and optical density values were read at 630 nm in ELISA plate reader. The data was analyzed in Microsoft Excel, using the vehicle control as 100% proliferation. […]

[2] = test system: Human ovary cancer A2780 cells; assay: Cell proliferation, A2780 (Example 2); settings: 72 hours, 0.1% DMSO, methylene blue
Procedure: as §1

[3] = test system: human melanoma A375 cells; assay: Cell proliferation, A375 (Example 2); settings: A-375, 72 hours, 0.1% DMSO, methylene blue
Procedure: as §1

Compound | IC50 [1] [nM] | IC50 [2] [nM] | IC50 [3] [nM]
O=c1c(O)cc2cnc(/C=C/c3ccc(O)c(O)c3Br)sc-2c1O [Compound 5] | 400 |  | 
O=c1c(O)cc2cnc(/C=C/c3cc(O)c(O)c(Br)c3)sc-2c1O [Compound 3] | 500 | 300 | 1000
